Consider three molecules from US20240059712A1, “BIFUNCTIONAL COMPOUNDS AND PHARMACEUTICAL USES THEREOF” (priority 2022, published 2024).

For one assay, the target named is T1, KRAS^G12D protein (Homo sapiens, UniProt P01116, G12D).
T1 construct: host or cells: Aspc-1 (AsPC-1) cells
The assay is described as follows: Protein degradation study (western blot) in Aspc-1 cells. The note with it: for inhibition at 0.005 µM: Aspc-1 cells treated with 0.005 μM compound; for DC50: Aspc-1 cells, half-maximum degradation concentration, read-out: DC50 of compounds induced Ras G12D protein degradation. Format: cell-based. The method, then: Aspc-1 (Cobioer, CBP60546) cells in exponential growth phase were inoculated on a 6-well cell culture plate (Corning, 3516) at density of 1E6/well; and cells in the plate were cultured in 37° C. incubator containing 5%-carbon dioxide. The next day, testing compounds were dissolved in DMSO (Sigma, RNBF5902) for the preparation of a 10-mM concentration stock solution. The stock solution was diluted with complete medium (RPMI-1640 supplemented with 10% fetal bovine serum, 1% penicillin-streptomycin), yielding working solutions of various concentrations. The plate, after the addition of compounds, was placed in a 5% carbon dioxide incubator, and incubated at 37° C. for 24 hours (final DMSO concentration was 0.1%). The plate was then removed from the incubator, and the cells were washed twice with precooled PBS (Gibco, 14190250), followed by addition of 80-μL RIPA lysis buffer (containing protease inhibitor (Invitrogen™, AM2696)) to each well. The adherent cells were scraped off with a cell scraper, and the cell lysate was transferred to a 1.5-mL centrifuge tube followed with a 30-minute incubation on ice. The lysate was then clarified with centrifugation at 14000 rpm for 10 min at 4° C. The supernatant was transferred into a new 1.5-mL centrifuge tube, and protein concentration was measured with BCA protein detection kit (Thermo Fisher, 23225). G12D protein level was assessed by western blot.
A mixture of cell lysate (40 μL) and loading buffer (10 μL, 5×SDS (Beyotime, P0015L)) was denatured in a water-bath at 95° C. for 10 min. The denatured protein sample, at 30 μL/well, was loaded into corresponding well of 4-20% Bis-Tris gel (Kingsley, M00656). Protein samples were initially electrophoresed at 80 V for 30 minutes, followed by 120 V for 40 minutes, until the bromophenol blue strip ran to an appropriate position. After electrophoresis, iBlot2 (Life Technologies, IB21001) was used to transfer the separated samples onto PVDF film. The PVDF membrane was washed with double-distilled water and then blocked in TBST (Thermo Scientific, 28360) buffer containing 5% non-fat milk, for 2 hours. Blocked membrane was rinsed with tris-buffered saline tween-20 (Thermo Scientific, 28360, TBST) three times, 10 minutes each. Membrane was then incubated with 1:1000 diluted KRAS primary antibody (CST, cat #14429S) overnight at 4° C. Membrane was rinsed in a way described previously followed by 1 hour incubation of secondary antibody at room temperature. After washing the film for three times with TBST, ECL color developing solution was applied, and image was captured with Biorad Chemi Doc gel imager. The band gray value was quantified (Image Lab), and protein degradation level was calculated according to the following formula:
Level of RAS protein expression=(RAS-compound/GAPDH)/(RAS-DMSO/GAPDH)
Level of degradation (%)=(1−Rate of RAS protein expression)×100
Symbols of −, +, ++, +++ indicate that the degradation level of Ras protein induced by testing compounds are […], 11 to 30%, 31 to 60% and greater than 60%, respectively.
Half-maximum degradation concentrations (DC50s) of testing compounds were calculated using GraphPad Prism and their values were shown in Table 6. Symbols of […] represent DC50s equal or less than 10 nM, 11-50 nM, 51-100 nM, and 101-200 nM, respectively.
(A western blot detects proteins with antibodies after separation by electrophoresis.)

The next assay deals with Aspc-1 cells. The assay is described as follows: Cell proliferation study (Cell Titer Glo, 72 hours). Format: cell-based. The note with it: Homo sapiens, ASPC1, read-out: IC50, inhibitory effect on cellular proliferation. The protocol: Aspc-1 (Cobioer, CBP60546) cells were grown in RPMI 1640 (Gibco, 61870127) supplemented with 10% fetal bovine serum (Gibco, 10099141), 1% penicillin-streptomycin (Gibco, 15070-063). Aspc-1 cells in exponential growth phase were seeded into 96-well plate (Corning, 3599) at density of 4×10^3/well. Cells were cultured overnight at 37° C. with 5% CO2. On the next day, cells were treated with compound at various concentrations for 72 hours in 37° C., 5% CO2 incubator (final DMSO concentration is 0.1%). After treatment, the cell plates were added 100 μL Cell Tier Glo (Promega, G7573) to every well and incubated at RT for 10 minutes. Cell growth status was measured with Cell Tier Glo (Promega, G7573) following manufacturer's directions. The inhibition curve was obtained with GraphPad 7.0 software using four-parameter equation.
On the technique in general: Cellular ATP, detected with luciferase, serves as a proxy for viable cell number.

[1] abbreviates: ASPC1, 24 h, 24 hours, read-out: Rate of degradation.

T1 sequence (P01116 1-188 isoform P01116-2 G12D): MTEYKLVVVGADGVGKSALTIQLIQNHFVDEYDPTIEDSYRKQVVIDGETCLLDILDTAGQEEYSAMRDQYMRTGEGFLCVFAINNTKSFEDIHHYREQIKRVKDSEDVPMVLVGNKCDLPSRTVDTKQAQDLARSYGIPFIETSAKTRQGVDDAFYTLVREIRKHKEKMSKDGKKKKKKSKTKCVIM

Broadly, the DC50 is the concentration giving 50% degradation. Take `C#Cc1c(F)ccc2cc(O)cc(-c3ncc4c(N5CC6CCC(C5)N6)nc(OCC5(CN6CCC7(CCC(N8CCC(c9ccc%10c(C%11CCC(=O)NC%11=O)nn(C)c%10c9)CC8)CC7)CC6)CC5)nc4c3F)c12` (stereo not drawn) [Compound 33a]: on KRAS^G12D protein (setting [1]), the inhibition at 0.005 µM was over 60%. Moreover, at KRAS^G12D protein (ASPC1, 24 h, Aspc-1 cells treated with 50 nM compound, 24 hours, read-out: Rate of degradation), the inhibition at 0.05 µM is over 60%. Further, the DC50 at KRAS^G12D protein was under 10 nM. Also, the IC50 in the assay on Aspc-1 cells was under 100 nM.

For `C#Cc1c(F)ccc2cc(O)cc(-c3ncc4c(N5CC6CCC(C5)N6)nc(OCC5(CN6CCC7(CC6)CC(N6CCC(c8cc9c(cc8F)c(N8CCC(=O)NC8=O)nn9C)C(F)(F)C6)C7)CC5)nc4c3F)c12` (stereo not drawn) [Compound 37a], the DC50 at KRAS^G12D protein is under 10 nM. In addition, the IC50 with Aspc-1 cells was under 100 nM.

As for `Cn1nc(N2CCC(=O)NC2=O)c2cc(F)c(C3CCN(C4CC5(CCN(CC6(COc7nc(N8CC9CCC(C8)N9)c8cc(Cl)c(-c9ccc(F)c%10sc(N)c(C#N)c9%10)c(F)c8n7)CC6)CC5)C4)CC3)cc21` [Compound 40a], the inhibition at 0.005 µM at KRAS^G12D protein (setting [1]) is over 60%. The DC50 at KRAS^G12D protein is under 10 nM. In addition, in the assay with Aspc-1 cells, the IC50 is under 100 nM.
